Test: Oral bioavailability in Beagle dogs (plasma concentration of relebactam)
Format: in vivo
Conditions: male Beagle dogs, IV bolus, mean
Protocol: The oral bioavailability of certain relebactam prodrugs provided by the present disclosure in Beagle dogs was evaluated.
Dosing formulations are prepared on the day of dosing. Intravenous formulations are prepared under aseptic conditions, sterile filtered, and brought to room temperature prior to dosing. The intravenous formulation included relebactam at a final concentration of 2.8 mg/mL in PBS at pH 7.5.
The formulations were administered to male Beagle dogs weighing about 10 kg. The animals were maintained in accordance with the Guide for the Care and Use of Laboratory Animals, National Research Council, The National Academies Press, Washington, DC, 2011.
The dogs received either an IV bolus dose of 9.9 mg/kg, or a peroral dose of 22 mg/kg (Compound 87) or 20.0 mg/kg (Compound 88). […]
The plasma concentration of relebactam was measured at intervals following administration. […] The relebactam concentration was determined using LC/MS/MS.
The area under the concentration vs. time curves (AUC) was calculated using the linear/log trapezoidal method with linear interpolation. The percent oral bioavailability (% F) of relebactam was determined by comparing the AUC following oral administration with the AUC following IV administration on a dose normalized basis.

AUC(0-inf) (dog, nominal dose 10.0 mg/kg (administered 9.88 mg/kg)): 29400 ng·h/mL
AUC0-inf/D (relebactam-equivalent dose 9.88 mg/kg): 2974
Structure (SMILES): O=C(NC1CCNCC1)[C@@H]1CC[C@@H]2CN1C(=O)N2OS(=O)(=O)O [relebactam]
